{"source": "patent US10898502B2", "about": "“Treatment of diseases using a combination of ultraviolet blood irradiation and antibiotics” (priority 2014, dated 2021)", "key": {"[1]": {"assay": "Adverse reactions seen in the treated patients", "conditions": "Example 2 patient; medication discontinued"}, "MAP": {"test_system": "MAP", "conditions": "cited from earlier work"}, "[2]": {"conditions": "human, in vivo"}, "M. tuberculosis": {"test_system": "M. tuberculosis", "conditions": "cited from earlier work"}, "cathelicidin": {"test_system": "cathelicidin", "conditions": "cited from earlier work"}}, "data": [{"molecule": "NCC1(CC(=O)O)CCCCC1", "note": "[Gabapentin]", "values": [{"measurement": "Tolerability at the lowest recommended dose", "setting": "[1]", "result": "very dizzy"}]}, {"molecule": "Vitamin A", "values": [{"measurement": "Growth of MAP in vitro", "setting": "MAP", "result": "inhibit the growth of MAP"}]}, {"molecule": "Cn1cnc([N+](=O)[O-])c1Sc1ncnc2nc[nH]c12", "note": "[azathioprine]", "values": [{"measurement": "Liver enzymes leading to discontinuation", "setting": "[2]", "result": "elevated ALT and AST"}]}, {"molecule": "Vitamin D", "values": [{"measurement": "Growth of MAP in vitro", "setting": "MAP", "result": "inhibit the growth of MAP"}, {"measurement": "Proliferation of M. tuberculosis in macrophages", "setting": "M. tuberculosis", "result": "reduce the proliferation"}, {"measurement": "Intracellular production of cathelicidin", "setting": "cathelicidin", "result": "induces"}]}]}
